How the values were obtained:
[1] = NP TLC on control silica gel plates without protein modifier (Rf); assay type: physicochemical; conditions: silica gel 60 F254 without BSA (control), mobile phase acetonitrile:acetate buffer pH 7.4:methanol 60:20:20, λ = 240 nm
Method: TLC was performed in normal and reversed phase (NP and RP) systems. Aluminum plates with silica gel (Merck, TLC Silica gel 60 F254) were used in the NP system and aluminum plates with silanized silica gel—RP (Merck, TLC Silica gel 60 RP-2 F254, silanized) were used in the RP system. The stationary phase surface modifying protein was bovine serum albumin. A 2-mg/mL solution of BSA (Sigma Aldrich, Bovine serum albumin lyophilised powder) in distilled water was applied on the surface using Desaga Sprayer SG 1 and air-dried.
Drug solutions in methanol (1 mg/mL) were applied on the plates with the Desaga HPTLC-Applicator AS 30, then the plates were developed in the mobile phase composed of acetonitrile, acetate buffer pH 7.4 and methanol, 60:20:20 (v/v/v). All solvents used—water, methanol and acetonitrile—were purchased from J.T. Baker (HPLC Gradient Grade). The acetate buffer (20mM) was prepared by dissolving 1.54 g of ammonium acetate in 1 L of distilled water. The pH was then adjusted with concentrated ammonia solution.
The mobility of the compounds was initially determined on NP and RP plates without the participation of the protein modifier. These were labeled as controls (C). The obtained retardation factor (Rf) values could be used to determine the composition of the mobile phase, as well as the specific effect of the protein modifier on the mobility of the APIs. […]

bovine serum albumin = bovine serum albumin (Bos taurus, UniProt P02769); test: NP TLC on BSA-impregnated silica gel plates (retardation factor Rf); assay type: binding; conditions: silica gel 60 F254 impregnated with BSA, mobile phase acetonitrile:acetate buffer pH 7.4:methanol 60:20:20, λ = 240 nm
human serum albumin = human serum albumin (Homo sapiens, UniProt P02768); test: HPLC on column with immobilized human serum albumin (CHIRALPAK HSA); assay type: binding; conditions: mobile phase acetate buffer pH 7.4:acetonitrile:methanol 85:10:5; flow 0.9 mL/min; 25 degrees Celsius; void time marker methanol t = 1.63
Sequence of human serum albumin (P02768 25-609): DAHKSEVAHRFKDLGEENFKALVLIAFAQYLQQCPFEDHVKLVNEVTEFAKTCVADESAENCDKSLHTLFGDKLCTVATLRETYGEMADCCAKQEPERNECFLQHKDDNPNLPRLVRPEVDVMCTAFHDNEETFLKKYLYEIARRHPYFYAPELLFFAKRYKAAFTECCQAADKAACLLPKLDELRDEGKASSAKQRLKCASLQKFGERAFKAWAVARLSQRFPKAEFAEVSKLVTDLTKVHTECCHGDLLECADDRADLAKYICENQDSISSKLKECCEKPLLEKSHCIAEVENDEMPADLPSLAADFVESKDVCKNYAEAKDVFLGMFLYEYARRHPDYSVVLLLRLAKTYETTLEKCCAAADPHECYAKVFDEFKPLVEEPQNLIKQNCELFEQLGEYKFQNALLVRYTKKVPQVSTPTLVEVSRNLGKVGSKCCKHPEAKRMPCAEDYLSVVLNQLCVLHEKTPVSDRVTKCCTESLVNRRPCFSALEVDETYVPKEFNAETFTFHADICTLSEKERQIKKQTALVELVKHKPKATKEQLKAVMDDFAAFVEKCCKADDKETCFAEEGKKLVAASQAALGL
Method: HPLC analysis was performed on a Perkin Elmer Series 200 apparatus with a UV-VIS spectrometer for detection with an analytical wavelength of 210 nm. The mobile phase consisted of an acetate buffer with pH 7.4:acetonitrile:methanol, 85:10:5 (v/v/v). All solvents used—water, methanol and acetonitrile—were purchased from J.T. Baker (HPLC gradient class). The acetate buffer (10 mM) was prepared by dissolving 0.77 g of ammonium acetate in 1 L of distilled water. The pH was then adjusted with a concentrated ammonia solution.
API solutions in methanol (1 mg/mL, volume of injection: 10 μL) were injected into the HSA column using an automatic autosampler. The flow rate of the mobile phase was 0.9 mL/min. Since the column could not be thermostated, the room temperature was kept constant at 25 degrees Celsius by air conditioning. Chromatographic data (retention factor k and derivative: log k) were obtained for 129 APIs using the TotalChrom software connected to HPLC. Factor k, which is the ratio between the amount of analyte in the stationary phase to the amount in the mobile phase, was obtained from the equation k = (tR − tM)/tM where tR is retention time and tM is void time. The experiment was then repeated, and the collected retention factors (k) were means values from both series.

Sequence of bovine serum albumin (P02769 25-607): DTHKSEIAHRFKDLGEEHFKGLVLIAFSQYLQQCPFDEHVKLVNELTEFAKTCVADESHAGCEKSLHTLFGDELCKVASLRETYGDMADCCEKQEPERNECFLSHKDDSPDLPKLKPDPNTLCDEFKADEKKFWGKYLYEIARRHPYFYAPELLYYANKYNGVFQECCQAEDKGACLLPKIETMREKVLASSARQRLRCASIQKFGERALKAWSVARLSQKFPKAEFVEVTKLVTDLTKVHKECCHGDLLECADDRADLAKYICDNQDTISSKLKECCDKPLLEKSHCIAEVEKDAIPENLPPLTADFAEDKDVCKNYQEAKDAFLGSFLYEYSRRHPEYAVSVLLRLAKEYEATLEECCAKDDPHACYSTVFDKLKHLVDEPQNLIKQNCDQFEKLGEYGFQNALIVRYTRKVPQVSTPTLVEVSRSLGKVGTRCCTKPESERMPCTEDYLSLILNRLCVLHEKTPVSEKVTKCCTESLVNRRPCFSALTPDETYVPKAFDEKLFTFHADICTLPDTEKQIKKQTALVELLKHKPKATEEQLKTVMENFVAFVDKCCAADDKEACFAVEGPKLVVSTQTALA

SMILES | Rf, control NP plate [1] | Rf, BSA-impregnated NP plate (bovine serum albumin) | retention time (t) on HPLC column with immobilized HSA (human serum albumin)
CN(C)CCC=C1c2ccccc2COc2ccccc21 [doxepin] | 0.34 | 0.31 | 
CC(C)c1nc(N(C)S(C)(=O)=O)nc(-c2ccc(F)cc2)c1/C=C/[C@@H](O)C[C@@H](O)CC(=O)O [rosuvastatin] |  |  | 3.71

From PMC7997166, “In Silico Plasma Protein Binding Studies of Selected Group of Drugs Using TLC and HPLC Retention Data” (Pharmaceuticals, 2021)
